From ChEMBL document CHEMBL1130600, “Tropane-based amino acids for peptide structure-function studies: inhibitors of platelet aggregation” (Bioorg Med Chem Lett, 1998)

Species: Homo sapiens
Test: Compound was tested for its ability to inhibit the thrombin-induced platelet aggregation in washed human platelets
Assay type: functional
Compound `NC(N)=NCCCC(N)C(=O)N1C2CCC(C(=O)NC(CC(=O)O)C(=O)NC(CO)C(=O)O)C1CC2` (stereo unspecified) has an IC50 of 23 µM.
`NC(N)=NCCCC(N)C(=O)N1C2CC=C(C(=O)NC(CC(=O)O)C(=O)NC(CO)C(=O)O)C1CC2` (stereo unspecified) gave an IC50 of 270 µM.
Work on `CC(=O)NC(CCCCN)C(=O)N1CCCC(C(=O)NCCC(=O)O)C1` (stereo unspecified) yielded an IC50 of 60 µM.
`CC(=O)NC(CCCCN)C(=O)N1C2CCC1C(C(=O)NCCC(=O)O)C2` (stereo unspecified) gave an IC50 greater than 500 µM.
With `CC(=O)N[C@H](CCCCN)C(=O)N1C2CC=C(C(=O)NCCC(=O)O)C1CC2` (stereo partly specified) the IC50 was 160 µM.
With `CC(=O)NC(CCCCN)C(=O)N1C2CC=C(C(=O)NCCC(=O)O)C1CC2` (stereo unspecified) the IC50 was greater than 500 µM.
`CC(=O)NC(CCCCN)C(=O)N1C2CCC(C(=O)NCCC(=O)O)C1CC2` (stereo unspecified) gave an IC50 of 370 µM.
With `CC(=O)N[C@H](CCCCN)C(=O)N1CCCC(C(=O)NCCC(=O)O)C1` (stereo partly specified) the IC50 was 20 µM.
Work on `CC(=O)N[C@H](CCCCN)C(=O)N1C2CCC1C(C(=O)NCCC(=O)O)C2` (stereo partly specified) yielded an IC50 greater than 500 µM.
`NC(N)=NCCCC(N)C(=O)N1C2CCC1C(C(=O)NC(CC(=O)O)C(=O)NC(CO)C(=O)O)C2` (stereo unspecified) showed an IC50 of 402 µM.
With `CC(=O)N[C@H](CCCCN)C(=O)N1C2CCC(C(=O)NCCC(=O)O)C1CC2` (stereo partly specified) the IC50 was 30 µM.
